Reference: paper PMC4844702, “Selective inhibition of the kinase DYRK1A by targeting its folding process” (Nature Communications, 2016)
Where two headings read alike, the source gives them in different places.

Assays:
[1] = target: T1, DYRK1A (Homo sapiens, UniProt Q13627); assay: SPHINKS assay: TAU (Thr212) phosphorylation by induced DYRK1A in HEK293 cells, western blot; format: cell-based; parameters: expressed in transfected cells; host or cells: Flp-In/T-REx HEK293
Procedure: TAU was expressed in a fused form with the destabilization domain FKBP12 (DD), which causes degradation of DD fusion proteins in the absence of a small molecule, Shield-1 (ref. [26]).
To distinguish kinase inhibition at the transitional state from that after maturation, we set up two types of time courses. […] Following additional incubation with Shield-1 for 2 h, total cell lysates were harvested, then subjected to western blot.
Cells were then cultured 24 h later in the presence of 1 μg ml^−1 of doxycycline (Nacalai Tesque) for 16 h, then treated with 1 μM of Shield-1 (Clontech, Takara Bio) for 2 h. Small molecules from our chemical library were diluted in 1 ml of DMEM and 1% FBS, then administered into the cells at a final concentration of 10 μM (0.1% DMSO), as illustrated in Fig. 1a. Total cell lysates were prepared with SDS-urea buffer (50 mM Tris-HCl, pH 7.0, 1% SDS, 4 M urea, 10% glycerol, 20 mM dithiothreitol, 0.5 mg ml^−1 BSA), then analysed with SDS–polyacrylamide gel electrophoresis (SDS–PAGE) followed by western blot analysis using antibodies against phospho-TAU (pT212) (1/3,000) and total TAU (1/3,000) proteins (Supplementary Fig. 14).
Category Parameter Description
Assay Type of assay Cell-based
Measurement Detection of TAU phosphorylation mediated by
Key reagents Rabbit polyclonal antibody against phosphorylated
Mouse monoclonal antibody against TAU (TAU-5)
ProteoTuner Shield System (Clontech Laboratories)
pcDNA5/FRT/TO vector and Flp-In/T-REx293 cells
Assay protocol Described in the sections "Methods" and "Results"
Library Library size Approximately 200
Library composition Synthetic chemical compounds, including derivatives
Source Laboratory of Chemical Bioscience, Institute of
Biomaterials and Bioengineering, Tokyo Medical and
Screen Format 6-well plates (FALCON) coated with polyethylenimine
Screen Concentration(s) tested 10 µM (0.1% DMSO) in DMEM with 1%FBS
Reagent/ compound dispensing system Manual
Detection instrument and software Western blot using primary anti-phospho- TAU and […]
Chemiluminescence of HRP was detected by the […]

[2] = target: T2, 3xFLAG-DYRK1A / CDC37-nanoKAZ (Homo sapiens, UniProt Q13627); parameters: expressed in transfected cells; host or cells: 293T cells stably expressing CDC37-nanoKAZ; method as in PMID 26234946; conditions: cited from earlier work
[3] = target: T3, human DYRK2 (Homo sapiens, UniProt Q92630); assay: RI-in vitro kinase assay with DYRKtide; format: biochemical; conditions: DYRKtide substrate; Fig. 8b, n=4; read-out: IC50, kinase activity of recombinant DYRK2
T3 construct: His-tagged full-length human DYRK2 recombinant proteins; His; purchased Millipore
T3 sequence (Q92630 whole entry): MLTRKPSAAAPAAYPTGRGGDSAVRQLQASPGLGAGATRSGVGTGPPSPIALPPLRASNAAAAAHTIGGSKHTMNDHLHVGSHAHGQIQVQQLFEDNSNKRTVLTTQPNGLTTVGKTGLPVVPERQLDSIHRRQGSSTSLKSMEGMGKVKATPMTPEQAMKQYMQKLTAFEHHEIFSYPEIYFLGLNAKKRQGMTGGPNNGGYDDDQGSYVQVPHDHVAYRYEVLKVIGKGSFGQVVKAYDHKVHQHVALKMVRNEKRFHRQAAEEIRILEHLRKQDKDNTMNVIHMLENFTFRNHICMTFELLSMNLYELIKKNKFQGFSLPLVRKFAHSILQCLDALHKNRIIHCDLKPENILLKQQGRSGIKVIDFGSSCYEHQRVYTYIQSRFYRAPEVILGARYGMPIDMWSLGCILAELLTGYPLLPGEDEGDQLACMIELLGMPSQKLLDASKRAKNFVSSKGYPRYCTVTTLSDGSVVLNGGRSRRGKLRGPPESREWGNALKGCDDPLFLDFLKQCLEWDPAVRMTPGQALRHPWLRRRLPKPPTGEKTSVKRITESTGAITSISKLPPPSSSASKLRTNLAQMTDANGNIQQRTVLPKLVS

[4] = test system: mature Drosophila DYRK2; parameters: method as in PMID 17188038; conditions: cited from earlier work
[5] = test system: transitional intermediate of Drosophila DYRK2; parameters: method as in PMID 17188038; conditions: cited from earlier work
[6] = target: T4, human DYRK1B (Homo sapiens, UniProt Q9Y463); assay: RI-in vitro kinase assay with DYRKtide; format: biochemical
T4 construct: GST-tagged full-length human DYRK1B recombinant proteins; GST; purchased Life Technologies
T4 sequence (Q9Y463 whole entry): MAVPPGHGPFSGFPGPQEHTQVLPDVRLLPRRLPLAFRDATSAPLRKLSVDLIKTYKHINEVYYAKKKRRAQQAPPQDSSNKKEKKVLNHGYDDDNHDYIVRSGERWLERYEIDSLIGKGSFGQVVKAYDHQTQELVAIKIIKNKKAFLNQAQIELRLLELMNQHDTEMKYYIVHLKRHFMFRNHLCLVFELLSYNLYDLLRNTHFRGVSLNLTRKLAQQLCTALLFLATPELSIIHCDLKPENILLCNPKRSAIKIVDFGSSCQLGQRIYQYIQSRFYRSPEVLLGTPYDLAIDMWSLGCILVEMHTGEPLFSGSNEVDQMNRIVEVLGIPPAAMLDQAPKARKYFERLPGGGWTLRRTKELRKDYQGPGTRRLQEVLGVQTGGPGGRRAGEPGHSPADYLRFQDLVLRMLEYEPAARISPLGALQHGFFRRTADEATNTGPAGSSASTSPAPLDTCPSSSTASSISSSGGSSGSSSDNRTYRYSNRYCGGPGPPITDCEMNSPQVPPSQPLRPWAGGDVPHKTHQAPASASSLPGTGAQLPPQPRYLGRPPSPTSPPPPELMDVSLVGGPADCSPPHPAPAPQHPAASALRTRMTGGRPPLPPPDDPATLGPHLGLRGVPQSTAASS
Procedure: (§1) The RI-in vitro kinase assay was performed as described previously, with some modifications. […] GST-tagged full-length human DYRK1B recombinant proteins and His-tagged full-length human DYRK2 recombinant proteins were obtained from Life Technologies and Millipore, respectively. The kinase reaction was performed in a reaction mixture containing serially diluted inhibitors, 10 mM MOPS-KOH (pH 7.0), 10 mM magnesium acetate, 200 μM EDTA, 1 μM ATP, 0.1–0.4 μCi [γ-^32P]ATP, 5 μM DYRKtide and 0.1–1 μg recombinant kinase, for a final volume of 25 μl. The final concentration of DMSO was adjusted to 1%, regardless of the inhibitor concentration. The reaction mixture was incubated at 30 °C for 10 min and phosphoric acid (final 5%) was then added to stop the reaction. We then dispensed 25 μl of the reaction mixture onto P81, a phosphocellulose membrane (Whatman, GE Healthcare), and washed four times in 5% phosphoric acid. Cherenkov light from the incorporated ^32P was measured using a liquid scintillation counter. The kinase assay conditions, including the incubation period and the concentration of the kinases and substrates, were optimized to maintain linearity during the incubation. The net radioactivity was determined by subtracting the background count from the reaction mixture without kinase, and the data were expressed as a percentage of the control sample containing the solvent.

[7] = target: T5, FLAG-DYRK1A (Homo sapiens, UniProt Q13627); assay: 2A peptide bicistronic FLAG-DYRK1A/HA-EGFP expression in HEK293 cells, western blot; format: cell-based
T5 construct: F2A peptide (remnant left on the upstream protein after ribosome skipping) (C); expressed in transfected cells; host or cells: HEK293 (Flp-In/T-REx), vector stably integrated
Procedure: After incubation for 5 h, total cell lysates were subjected to SDS–PAGE followed by western blot analysis using the corresponding antibodies against FLAG, HA and GAPDH. Representative data from the pentaplicate experiments are shown. […] Representative data from the triplicate experiments are shown. […] Total cell lysates were subjected to SDS–PAGE followed by western blot analysis. Representative data from the triplicate experiments are shown.

[8] = target: T1, DYRK1A; conditions: DYRKtide, 100 μM ATP; up to 32 μM compound
Procedure: For the in vitro kinase assay, 0.5 μl of the reaction mixture was incubated in a total volume of 25 μl of AR buffer containing 0.1 mg ml^−1 of BSA, 100 μM of ATP, 50 μM of DYRKtide peptide (Anaspec) and the indicated concentrations of the small molecules for 2 h at 37 °C. The consumption of ATP was measured with ADP-Glo Kinase Assay kit (Promega Corporation).

[9] = target: T6, human DYRK1A kinase domain (Homo sapiens, UniProt Q13627); assay: RI-in vitro kinase assay with DYRKtide; format: biochemical; conditions: for IC50: DYRKtide substrate
T6 construct: His-tagged human DYRK1A kinase domain (residues 127–485) was produced in E. coli; His; made in house; host or cells: E. coli
Procedure: as §1
The amount of incorporated ^32P was calculated from the standard line. The Km, Ki and Vmax values were calculated with Prism5 software (GraphPad Software) using the competitive inhibition model.

[10] = target: GST-DYRK1A-TS WT (Homo sapiens, UniProt Q13627); assay: biochemical
Procedure: (§4) For the in vitro kinase assay, 2 μl (bed vol.) of the resin was incubated in a total volume of 25 μl of AR buffer containing 0.1 mg ml^−1 of BSA, 100 μM of ATP, 50 μM of DYRKtide peptide and the indicated concentrations of the small molecules, for 2 h at 37 °C. The consumption of ATP was measured with ADP-Glo Kinase Assay kit.

[11] = target: GST-DYRK1A-TS Y319E (Homo sapiens, UniProt Q13627, Y319E); assay: biochemical
Procedure: as §4

[12] = target: T1, DYRK1A; conditions: PURExpress
Procedure: The PURExpress kit (New England Biolabs) was employed. DYRK1A was expressed at 37 °C for 40 min in a 12.5-μl reaction mixture containing 30 ng of pET28a(+)-FLAG-DYRK1A. […] For immunoprecipitation, 100 μl of PBS containing 0.5% Empigen BB, 0.5 mg ml^−1 BSA and 5 mM EDTA was added into the reaction mixture, then incubated with anti-FLAG (M2) beads at 4 °C for 6 h. The samples were prepared with an SDS-urea buffer, then analysed with SDS–PAGE followed by western blot (Supplementary Fig. 14). The band intensities were measured using the LAS-3000 (Fujifilm) and Multi Gauge software (Fujifilm).

[13] = target: GST-DYRK1A-TS Y319E mutant (Homo sapiens, UniProt Q13627, Y319E); assay: biochemical; conditions: ATP 100 μM
Procedure: The cells were cultured with IPTG (final 1 mM) for 24 h at 6 °C, then lysed with GET buffer (20 mM HEPES-KOH, pH 8.0, 150 mM NaCl, 1 mM EDTA, 2 mM dithiothreitol, 10% glycerol, 0.5% Empigen BB, 0.5% Triton X-100). Clarified cell lysates were loaded onto a Strep-Tactin Sepharose column (IBA) and the bound proteins were then eluted with GET buffer containing 2.5 mM desthiobiotin (IBA) and 1 mg ml^−1 BSA. The eluates were subsequently applied to GST-Accept resin (Nacalai Tesque). The resin was washed extensively, first with GET buffer, then with AR buffer (5 mM MOPS, pH7.2, 2.5 mM β-glycerol-phosphate, 5 mM MgCl2, 1 mM EGTA, 0.4 mM EDTA, 2 mM tris(2-carboxyethyl)phosphine). […] We then added 5 μl of 2 mg ml^−1 BSA to the suspension (final concentration of 0.1 mg ml^−1), followed by incubation at 37 °C for 30 min. […] The bound proteins were eluted with SDS-urea buffer, then analysed with SDS–PAGE followed by western blot (Supplementary Fig. 14).
The band intensities were measured using the ChemiDoc MP Imaging System (Bio-Rad). In Fig. 6d,e, the relative activity of the phosphorylation was calculated from the ATP-dependent increase in the intensity of the p-Ser97 and p-Tyr signals by subtracting the band intensity in the absence of ATP from that in the presence of ATP.

[14] = target: T2, 3xFLAG-DYRK1A / CDC37-nanoKAZ; conditions: 24 h treatment; dose-dependent; 293T
Procedure: The wells were wash three times with ice-cold HENG buffer and then a luminescence assay was performed. […] The luminescence intensity was recorded at 0.1 s intervals for 10 s or 10 min. […] The relative amount of protein bound on the well was estimated from the absorbance.

[15] = test system: p-Ser97 of FLAG-DYRK1A; assay: p-Ser97 signal of FLAG-DYRK1A in HEK293 cells treated with phosphatase inhibitors; format: cell-based; conditions: HEK293, with doxycycline 8 h
Description: blotanalysisusing antibodies against p- Ser97 and FLAG. If Ser97 autophosphorylation were mediated by an intermolecular mechanism, then Ser97 of the kinase- dead K188R mutant would be phosphorylated when expressed in the presence of DD-FLAG-DYRK1A. However, in spite of the excess amount of DD- FLAG-DYRK1A, the phosphorylation of Ser97 in the kinase- dead mutant didnot increase compared toresults obtainedin the absence of DD- FLAG-DYRK1A.
Representative data from the triplicate experiments is shown.
(b) HEK293 cells harbouring the empty vector or the expression vector of DD -FLAG-DYRK1A with the bicistronic expression cassette of the kinase- dead FLAG- DYRK1A (K188R) and EGFP were incubated with Shield- 1 at the indicated concentrations for 16 h. After accumulation of DD- FLAG-DYRK1A, FLAG- DYRK1A (K188R) was expressed for 16 h in the presence of Shield- 1 and doxycycline. The kinase- dead FLAG- DYRK1A (K188R) didnot increase in the presence of DD- FLAG-DYRK1A, supporting the conclusion in (a).Representative data from the triplicate experiments is shown.
(c) p- Ser97 is susceptible to dephosphorylation in HEK293 cells. The HEK293 cells were treated with the indicated concentration of calyculin A, okadaic acid, and cantharidic acid in the presence of doxycycline for 8 h. The total cell lysates were subjected to immunoprecipitation using antibody against FLAG- tag. The immuno- precipitated FLAG- DYRK1A was detected using antibodies against p- Ser97 and FLAG- tag. […]
with cantharidic acid increased the p- Ser97 signal. In contrast, the treatment with calyculin A […]
which may indicate that calyculin A and okadaic acid inhibited dephosphorylation of other sites […]
phosphatases inhibited by these compounds have not been completely identified. Phosphatase(s) inhibited by cantharidic acid may play a role in dephosphorylation of p -Ser97 in the cells. […]
antibody- conjugated beads. […] Each protein was detected with the corresponding antibodies against p- Ser97 or FLAG. […]
(e) The band intensities in ( d) were quantified. […]

[16] = test system: DYRK1A; assay: Rescue of Xenopus laevis embryos injected with DYRK1A mRNA; format: in vivo; conditions: 2.5 μM
Description: (§2) Uninjected embryos were used as controls. Development of the embryos was allowed to proceed to stage 40 in the dark. Representative images are shown. […] The results are the means±s.e.m. of triplicate experiments (n=55). (c) RT–PCR analysis of the neural marker genes in the head regions of the embryos at stage 25. Each of the marker genes indicates a specific region: NCAM for the pan-neural region, Brain Factor-1 (BF-1) for the forebrain, Pax-6 and Rx-1 for the eye, Otx-2 for the fore-midbrain, Engrailed-2 (En-2) for the mid-hindbrain and Krox-20 for the hindbrain. Ornithine decarboxylase (ODC) is an internal control.
(§3) DYRK1A and DYRK1B mRNA, which were synthesized from linearized vectors with the mMessage mMachine Kit (Life Technologies), were injected into two dorsal blastomeres at the eight-cell-stage for RT–PCR analysis and observation of the embryo phenotypes. […] The head regions of the injected embryos were dissected at the neural stage (stage 25) and the total RNA was isolated using TRIzol (Life Technologies). cDNA synthesis was carried out using Moloney murine leukaemia virus reverse transcriptase (Life Technologies). The sequences of the primer pairs were as follows[51][52]: NCAM, 5′-[…]-3′ and 5′-[…]-3′; Brain factor 1 (BF-1), 5′-[…]-3′ and 5′-[…]-3′; Pax-6, 5′-[…]-3′ and 5′-[…]-3′; Rx1, 5′-[…]-3′ and 5′-[…]-3′; Otx-2, 5′-[…]-3′ and 5′-[…]-3′; En-2, 5′-[…]-3′ and 5′-[…]-3′′; Krox-20, 5′-[…]-3′ and 5′-[…]-3′; ornithine decarboxylase (ODC), 5′-[…]-3′ and 5′-[…]-3′. No randomization was used, and no blinding was done.

[17] = test system: DYRK1B; assay: Rescue of Xenopus laevis embryos injected with DYRK1B mRNA; format: in vivo; conditions: 2.5 μM
Description: as §2, §3

For `CCN1/C(=C/C(C)=O)Sc2ccc(O)cc21` [INDY], the “TAU phosphorylation in Tc 2” value ([1]; 10 μM, compound added after accumulation of mature DYRK1A, HEK293) is given as “suppressed”, the “TAU phosphorylation in Tc 1” value ([1]; 10 μM, compound added before doxycycline induction, HEK293) is given as “suppressed” and the “interaction between DYRK1A and CDC37-nanoKAZ” value [2] is given as “weakened”. The IC50 [3] was 27.7 nM.

For `CC(C)[C@H](CO)Nc1nc(Nc2cccc(Cl)c2)c2ncn(C(C)C)c2n1` [Purvalanol A], the “inhibition of the mature kinase (Drosophila DYRK2)” value [4] is listed as “inhibited by both” and the “inhibition of the transitional intermediate of Drosophila DYRK2” value [5] is listed as “inhibited”.

With `CCOc1cc(/C=C2\SC(=S)NC2=O)ccc1O` [RD0392] the “TAU phosphorylation in HEK293 cells” value ([1]; Supplementary Fig. 2b) was “suppresses”, the IC50 [6] was 53.3 nM and the “amount of FLAG-DYRK1A (destabilization)” value [7] was “did not decrease”. The “substrate phosphorylation by DYRK1A produced in PURExpress” value [8] was “inhibited”, the Ki [9] was 132 nM and the IC50 ([9]; IC50, in vitro kinase activity of recombinant DYRK1A, Fig. 1f, n=4) was 60.2 nM. The IC50 ([9]; IC50, kinase activity of recombinant DYRK1A, Supplementary Fig. 13d, n=3) was 25.6 nM, the IC50 [10] was 325 nM and the IC50 [11] was 813 nM. For the same molecule, the “signal from phosphorylated tyrosine in in vitro translation” value [12] was “no significant effects”, the “Ser97 autophosphorylation in in vitro translation” value ([12]; compound added prior to transcription) was “suppressed” and the IC50 ([13]; IC50, Ser97 autophosphorylation) was 205 nM. For the same molecule, the IC50 ([13]; IC50, tyrosine phosphorylation) was 514 nM, the “interaction between DYRK1A and CDC37-nanoKAZ” value [14] was “weakened” and the IC50 [3] was 45.6 nM.

In the case of `Brc1c(Br)c(Br)c2[nH]nnc2c1Br` [TBB, 4,5,6,7-tetrabromo-1H-benzotriazole], the “inhibition of the mature kinase (Drosophila DYRK2)” value [4] is listed as “inhibited by both”.

With `COC[C@@H]([C@H](O)[C@H](O)C(=O)NCC[C@H](C)c1nc(/C=C/C[C@@H]2O[C@]3(C[C@@H](O)[C@@H]2C)O[C@H]([C@H](C[C@H](O)[C@H](C)[C@H](O)[C@H](C)/C=C(C)/C(C)=C/C=C/C(C)=C\C#N)OC)[C@H](OP(=O)(O)O)C3(C)C)co1)N(C)C` [calyculin A] the “p-Ser97 signal in FLAG-DYRK1A” value [15] was “did not increase”.

For `CC1(C(=O)O)C2CCC(O2)C1(C)C(=O)O` (stereo not shown) [cantharidic acid], the “p-Ser97 signal in FLAG-DYRK1A” value [15] was “increased”.

In the case of `C=C1[C@@H](O)[C@@H]2O[C@]3(CC[C@H](/C=C/[C@@H](C)[C@@H]4CC(C)=C[C@@]5(O[C@H](C[C@@](C)(O)C(=O)O)CC[C@H]5O)O4)O3)CC[C@H]2O[C@@H]1[C@@H](O)C[C@H](C)[C@H]1O[C@@]2(CCCCO2)CC[C@H]1C` [okadaic acid], the “p-Ser97 signal in FLAG-DYRK1A” value [15] is reported as “did not increase”.

With `CCN1/C(=C/C(C)=O)Sc2ccc(OC(C)=O)cc21` [proINDY] the “rescue of embryos injected with DYRK1A mRNA (small eyes)” value ([16]; Fig. 9b) was “almost completely rescued”, the “expression of neural marker genes in DYRK1A-overexpressing embryos” value ([16]; RT-PCR, stage 25 head regions) was “increased” and the “developmental malformation induced by DYRK1A” value ([16]; stage 40 tadpoles) was “repressed”. For the same molecule, the “tadpoles developed normally when injected with DYRK1B mRNA” value ([17]; Fig. 9b) was 89.1%, the “expression of neural marker genes in DYRK1B-overexpressing embryos” value ([17]; RT-PCR, stage 25 head regions) was “increased” and the “developmental malformation induced by DYRK1B” value ([17]; stage 40 tadpoles) was “repressed”.
